Source: patent US11414424B2, “Cardiac sarcomere inhibitors” (Cytokinetics, Inc., priority 2018, dated 2022)

Each compound was assayed on bovine cardiac myofibrils (assay: Myofibril assay: PK/LDH-coupled steady-state ATPase activity of skinned bovine cardiac myofibrils). Details: Ca2+ activating to 75% of maximal rate.
Format: biochemical
Method in brief: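 Steady-state ATPase of detergent-skinned bovine left-ventricular myofibrils (1 mg/mL), PK/LDH-coupled NADH read at 340 nm, in PIPES/MgCl2 buffer pH 6.8 with 50 μM ATP, 0.6 mM EGTA and CaCl2 set for 50% or 75% activation. Inhibition of activity measured.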

Row | SMILES | CDMF75 IC15 [µM]
1 | CCC(=O)N1CC[C@]2(C1)C(=O)N(c1ccc(C#N)cc1F)CC(=O)N2Cc1ccc(Cl)cc1 [Compound 214, (S)-4-(6-(4-chlorobenzyl)-7,10-dioxo-2-propionyl-2,6,9-triazaspiro[4.5]decan-9-yl)-3-fluorobenzonitrile] | 0.5
2 | N#Cc1ccc(N2CC(=O)N(Cc3ccc(C(F)(F)F)cc3)[C@]3(CCN(C(=O)C4COC4)C3)C2=O)c(F)c1 [Compound 215, (S)-3-fluoro-4-(2-(oxetane-3-carbonyl)-7,10-dioxo-6-(4-(trifluoromethyl)benzyl)-2,6,9-triazaspiro[4.5]decan-9-yl)benzonitrile] | 1.3
3 | COC(=O)N1CC[C@]2(C1)C(=O)N(c1ccc(C#N)cc1F)CC(=O)N2Cc1ccc(C(F)(F)F)cc1 [Compound 216, methyl (S)-9-(4-cyano-2-fluorophenyl)-7,10-dioxo-6-(4-(trifluoromethyl)benzyl)-2,6,9-triazaspiro[4.5]decane-2-carboxylate] | 0.3
4 | N#Cc1ccc(N2CC(=O)N(Cc3ccc(C(F)(F)F)cc3)[C@]3(CCN(C(=O)C4CCC4)C3)C2=O)c(F)c1 [Compound 217, (S)-4-(2-(cyclobutane-carbonyl)-7,10-dioxo-6-(4-(trifluoromethyl)benzyl)-2,6,9-triazaspiro[4.5]decan-9-yl)-3-fluorobenzonitrile] | 0.9
5 | CCC(=O)N1CC[C@]2(C1)C(=O)N(c1ccc(C#N)cc1F)CC(=O)N2Cc1ccc(C(F)(F)F)cc1 [Compound 218, (S)-4-(7,10-dioxo-2-propionyl-6-(4-(trifluoromethyl)benzyl)-2,6,9-triazaspiro[4.5]decan-9-yl)-3-fluorobenzonitrile] | 0.4
6 | N#Cc1ccc(N2CC(=O)N(Cc3ccc(C(F)(F)F)cc3)[C@]3(CCN(C(=O)C4CC4)C3)C2=O)c(F)c1 [Compound 219, (S)-4-(2-(cyclopropane-carbonyl)-7,10-dioxo-6-(4-(trifluoromethyl)benzyl)-2,6,9-triazaspiro[4.5]decan-9-yl)-3-fluorobenzonitrile] | 0.4
7 | N#Cc1ccc(N2CC(=O)N(Cc3ccc(Cl)cc3)[C@]3(CCN(C=O)C3)C2=O)c(F)c1 [Compound 220, (S)-4-(6-(4-chlorobenzyl)-2-formyl-7,10-dioxo-2,6,9-triazaspiro[4.5]decan-9-yl)-3-fluorobenzonitrile] | 0.8
8 | CC(C)C(=O)N1CC[C@]2(C1)C(=O)N(c1ccc(C#N)cc1F)CC(=O)N2Cc1ccc(Cl)cc1 [Compound 221, (S)-4-(6-(4-chlorobenzyl)-2-isobutyryl-7,10-dioxo-2,6,9-triazaspiro[4.5]decan-9-yl)-3-fluorobenzonitrile] | 4.1
9 | CC(C)C(=O)N1CC[C@]2(C1)C(=O)N(c1ccc(C#N)cc1F)CC(=O)N2Cc1ccc(C(F)(F)F)cc1 [Compound 223, (S)-3-fluoro-4-(2-isobutyryl-7,10-dioxo-6-(4-(trifluoromethyl)benzyl)-2,6,9-triazaspiro[4.5]decan-9-yl)benzonitrile] | 2.3
10 | CC(=O)N1CC[C@]2(C1)C(=O)N(c1ccc(OC(F)F)cc1)CC(=O)N2Cc1ccc(Cl)cc1 [Compound 224, (S)-2-acetyl-6-(4-chloro-benzyl)-9-(4-(difluoro-methoxy)phenyl)-2,6,9-triazaspiro[4.5]decane-7,10-dione] | 12.1
11 | COc1ccc(N2CC(=O)N(Cc3ccc(Cl)cc3)[C@]3(CCN(C(C)=O)C3)C2=O)nc1 [Compound 225, (S)-2-acetyl-6-(4-chloro-benzyl)-9-(5-methoxy-pyridin-2-yl)-2,6,9-triazaspiro[4.5]decane-7,10-dione] | 29.6
12 | N#Cc1ccc(N2CC(=O)N(Cc3ccc(Cl)cc3)[C@]3(C[C@@H](C(N)=O)C3)C2=O)c(F)c1 [Compound 266, (2s,4s)-5-(4-chlorobenzyl)-8-(4-cyano-2-fluorophenyl)-6,9-dioxo-5,8-diazaspiro-[3.5]nonane-2-carboxamide] | 0.7
13 | CC1(CO)C(=O)N(c2ccc(C#N)cc2F)CC(=O)N1Cc1ccc(C(F)(F)F)cc1 (stereo not shown) [Compound 269, 3-fluoro-4-(3-(hydroxy-methyl)-3-methyl-2,5-dioxo-4-(4-(trifluoro-methyl)benzyl)piperazin-1-yl)benzonitrile] | 1.2
14 | CC1(CO)C(=O)N(c2ccc(Cl)cc2F)CC(=O)N1Cc1ccc(C(F)(F)F)cc1 (stereo not shown) [Compound 270, 1-(4-chloro-2-fluorophenyl)-3-(hydroxymethyl)-3-methyl-4-(4-(trifluoro-methyl)benzyl)piperazine-2,5-dione] | 1.9
15 | O=C1CN(c2ccc(Cl)cc2F)C(=O)C2(CC2)N1Cc1ccc(C(F)(F)F)cc1 [Compound 271, 7-(4-chloro-2-fluorophenyl)-4-(4-(trifluoromethyl)-benzyl)-4,7-diazaspiro-[2.5]octane-5,8-dione] | 0.6
16 | O=C1CN(c2ccc(Cl)cc2F)C(=O)C2(CCC2)N1Cc1ccc(C(F)(F)F)cc1 [Compound 272, 8-(4-chloro-2-fluorophenyl)-5-(4-(trifluoromethyl)-benzyl)-5,8-diazaspiro-[3.5]nonane-6,9-dione] | 0.5
17 | CC1(C)C(=O)N(c2ccc(Cl)cc2F)CC(=O)N1Cc1ccc(C(F)(F)F)cc1 [Compound 273, 1-(4-chloro-2-fluorophenyl)-3,3-dimethyl-4-(4-(trifluoromethyl)benzyl)-piperazine-2,5-dione] | 1.8

Row | SMILES | CDMF75 IC15 [µM]
18 | O=C1CN(c2ccc(Cl)cc2F)C(=O)C2(COC2)N1Cc1ccc(C(F)(F)F)cc1 [Compound 274, 8-(4-chloro-2-fluorophenyl)-5-(4-(trifluoromethyl)-benzyl)-2-oxa-5,8-diazaspiro[3.5]nonane-6,9-dione] | 1.0
19 | C[C@@H]1C(=O)N(c2ccc(Cl)cc2F)CC(=O)N1Cc1ccc(C(F)(F)F)cc1 [Compound 275, (R)-1-(4-chloro-2-fluoro-phenyl)-3-methyl-4-(4-(trifluoromethyl)benzyl)-piperazine-2,5-dione] | 6.0
20 | C[C@H]1C(=O)N(c2ccc(Cl)cc2F)CC(=O)N1Cc1ccc(C(F)(F)F)cc1 [Compound 276, (S)-1-(4-chloro-2-fluoro-phenyl)-3-methyl-4-(4-(trifluoromethyl)benzyl)-piperazine-2,5-dione] | 3.0
21 | O=C1CN(c2ccc(Cl)cc2F)C(=O)CN1Cc1ccc(C(F)(F)F)cc1 [Compound 277, 1-(4-chloro-2-fluorophenyl)-4-(4-(trifluoromethyl)-benzyl)piperazine-2,5-dione] | 32.7
22 | CC1(C)C(=O)N(c2ccc(C#N)cc2F)CC(=O)N1Cc1ccc(C(F)(F)F)cc1 [Compound 279, 4-(3,3-dimethyl-2,5-dioxo-4-(4-(trifluoromethyl)-benzyl)piperazin-1-yl)-3-fluorobenzonitrile] | 1.2
23 | N#Cc1ccc(N2CC(=O)N(Cc3ccc(C(F)(F)F)cc3)C3(COC3)C2=O)c(F)c1 [Compound 280, 4-(6,9-dioxo-5-(4-(trifluoromethyl)benzyl)-2-oxa-5,8-diazaspiro[3.5]-nonan-8-yl)-3-fluorobenzonitrile] | 0.9
24 | O=C1C(C2COC2)N(Cc2ccc(C(F)(F)F)cc2)C(=O)CN1c1ccc(Cl)cc1F (stereo not shown) [Compound 281, 1-(4-chloro-2-fluorophenyl)-3-(oxetan-3-yl)-4-(4-(trifluoromethyl)benzyl)-piperazine-2,5-dione] | 4.3
25 | N#Cc1ccc(N2CC(=O)N(Cc3ccc(C(F)(F)F)cc3)C(C3COC3)C2=O)c(F)c1 (stereo not shown) [Compound 282, 3-fluoro-4-(3-(oxetan-3-yl)-2,5-dioxo-4-(4-(trifluoromethyl)benzyl)-piperazin-1-yl)benzonitrile] | 3.8
26 | CC(C)[C@H]1C(=O)N(c2ccc(C#N)cc2F)CC(=O)N1Cc1ccc(C(F)(F)F)cc1 [Compound 283, (S)-3-fluoro-4-(3-isopropyl-2,5-dioxo-4-(4-(trifluoromethyl)benzyl)-piperazin-1-yl)benzonitrile] | 0.6
27 | N#Cc1ccc(N2CC(=O)N(Cc3ccc(C(F)(F)F)cc3)[C@@H](C3CCC3)C2=O)c(F)c1 [Compound 284, (S)-4-(3-cyclobutyl-2,5-dioxo-4-(4-(trifluoromethyl)benzyl)piperazin-1-yl)-3-fluorobenzonitrile] | 0.5
28 | CC(C)(C)OC[C@H]1C(=O)N(c2ccc(C#N)cc2F)CC(=O)N1Cc1ccc(C(F)(F)F)cc1 [Compound 285, (S)-4-(3-(tert-butoxymethyl)-2,5-dioxo-4-(4-(trifluoro-methyl)benzyl)piperazin-1-yl)-3-fluorobenzonitrile] | 8.3
29 | N#Cc1ccc(N2CC(=O)N(Cc3ccc(C(F)(F)F)cc3)C3(CCOC3)C2=O)c(F)c1 (stereo not shown) [Compound 286, 4-(7,10-dioxo-6-(4-(trifluoromethyl)benzyl)-2-oxa-6,9-diazaspiro[4.5]decan-9-yl)-3-fluorobenzonitrile] | 0.7
30 | N#Cc1ccc(N2CC(=O)N(Cc3ccc(C(F)(F)F)cc3)[C@@H](CO)C2=O)c(F)c1 [Compound 287, (S)-3-fluoro-4-(3-(hydroxymethyl)-2,5-dioxo-4-(4-(trifluoromethyl)-benzyl)piperazin-1-yl)-benzonitrile] | 3.2
31 | CC(C)N1CC(=O)N(Cc2ccc(Cl)cn2)C(c2ccc(Cl)cc2)C1=O (stereo not shown) [Compound 293, 3-(4-chlorophenyl)-4-((5-chloropyridin-2-yl)methyl)-1-isopropylpiperazine-2,5-dione] | 36.0
32 | CC(C)N1CC(=O)N(Cc2ccccc2)C(c2ccc(Cl)cc2)C1=O (stereo not shown) [Compound 294, 4-benzyl-3-(4-chlorophenyl)-1-isopropylpiperazine-2,5-dione] | 33.3
33 | CC(C)N1CC(=O)N(Cc2ccc(Cl)cc2)C(c2ccc(Cl)cn2)C1=O (stereo not shown) [Compound 297, 4-(4-chlorobenzyl)-3-(5-chloropyridin-2-yl)-1-isopropylpiperazine-2,5-dione] | 11.6
34 | CC(C)N1CC(=O)N(Cc2cccc(Cl)c2)C(c2ccc(Cl)cc2)C1=O (stereo not shown) [Compound 298, 4-(3-chlorobenzyl)-3-(4-chlorophenyl)-1-isopropylpiperazine-2,5-dione] | 5.4
